Biological target: T1, human renal renin (Homo sapiens, UniProt P00797)
T1 construct: human renal renin, free from acid proteolytic activity; from tissue; host or cells: human kidney (from the word 'renal')
T1 sequence (P00797 67-406): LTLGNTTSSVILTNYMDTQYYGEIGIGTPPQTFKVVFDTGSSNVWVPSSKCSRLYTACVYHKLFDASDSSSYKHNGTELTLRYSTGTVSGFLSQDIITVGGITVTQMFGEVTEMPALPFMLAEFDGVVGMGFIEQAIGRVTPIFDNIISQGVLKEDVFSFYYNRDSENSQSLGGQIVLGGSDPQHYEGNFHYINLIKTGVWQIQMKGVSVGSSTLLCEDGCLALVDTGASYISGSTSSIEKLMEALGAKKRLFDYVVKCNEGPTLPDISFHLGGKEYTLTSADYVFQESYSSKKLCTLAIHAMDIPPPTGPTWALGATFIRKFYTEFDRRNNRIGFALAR
Assay: Inhibition of human renal renin in vitro (angiotensin I formed, measured by radioimmunoassay)
Type: biochemical
Settings: human renal renin with renin substrate (human angiotensinogen), 37° C., pH 6.0
Experimental: At the end of the incubation, the amount of angiotensin I formed is measured by radioimmunoassay and the molar concentration required to cause 50% inhibition, expressed as the IC50 is calculated.

Row | SMILES | IC50
1 | CC[C@H]1CO[C@@H]1[C@H](O)[C@H](CC1CCCCC1)NC(=O)C(Cc1cscn1)NC(=O)[C@H](Cc1ccccc1)Cn1ccnc1 (stereo partly drawn) [Example 76, (2R)-2-Benzyl-3-(imidazol-1-yl)propionyl-(4-thiazolyl)alanine Amide of (1R,2S,2'S,3'S)-1-Amino-3-cyclohexyl-1-[3'-(ethyl)oxetan-2'-yl]-1-(hydroxy)propane] | 0.28 nM
2 | CC[C@H]1CO[C@@H]1[C@H](O)[C@H](CC1CCCCC1)NC(=O)[C@H](Cc1cscn1)NC(=O)[C@@H](CC(=O)N(C)CCc1ccccn1)Cc1ccccc1 [Example 71, (2R)-2-Benzyl-3-[(2-pyridin-2-ylethyl)methylaminocarbonyl]propionyl-(4-thiazolyl)alanine Amide of (1R,2S,2'S,3'S)-2-Amino-3-cyclohexyl-1-[3'-(ethyl)oxetan-2'-yl]-1-(hydroxy)propane] | 0.27 nM
3 | CC[C@H]1CO[C@@H]1[C@H](O)[C@H](CC(C)C)NC(=O)C(Cc1cscn1)NC(=O)[C@H](Cc1ccccc1)Cn1ccnc1 (stereo partly drawn) [Example 181, (2R)-2-Benzyl-3-(imidazol-1-yl)propionyl-(4-thiazolyl)alanine Amide of (1R,2S,2S',3'S)-2-Amino-1-(3'-(ethyl)oxetan-2'-yl]-1-hydroxy-4-(methyl)pentane] | 3.7 nM
4 | CC([C@H]1CO[C@@H]1[C@H](O)[C@H](CC1CCCCC1)NC(=O)[C@H](Cc1cnc[nH]1)NC(=O)[C@H](Cc1ccccc1)NC(=O)OC(C)(C)C)C(F)(F)F (stereo partly drawn) [Example 47, Boc-Phe-His Amide of (1R,2S,2'S,3'S)-2-Amino-3-cyclohexyl-1-hydroxy-1-[3'-(1,1,1-trifluoroisopropyl)oxetan-2'-yl]propane] | 1.2 nM

Reference: patent US5258362A, “Renin inhibiting compounds” (Abbott Laboratories, priority 1992, dated 1993)
